Values of other authors, collected in US4690936A (priority 1980, dated 1987).
Non-standard residues stand in square brackets, D forms with d. Residues, ends and D or L forms follow the SMILES beside them. No end group written: not given here. pGlu = O=C1CC[C@@H](C(=O)O)N1

Tested on: ACE
Conditions: competitive substrate rather than true inhibitor

| Compound | type of ACE interaction (lower Km than angiotensin I) |
| --- | --- |
| C[C@H](NC(=O)[C@H](Cc1c[nH]c2ccccc12)NC(=O)[C@H](CCCCN)NC(=O)[C@@H]1CCC(=O)N1)C(=O)N1CCC[C@H]1C(=O)O [BPP5a, <GluLysTrpAlaPro] ([pGlu]KWAP-OH) | competitive substrates |
| RPPGFSPFR [bradykinin] | competitive substrates |
